{
  "source": "patent US10060907B2",
  "about": "“Redoxindicators” (priority 2014, dated 2018)",
  "key": {"[1]": {"assay": "Cyclic voltammetry (CV) studies of the redoxindicators", "assay_type": "physicochemical", "settings": "vs Ag/AgCl, 0.9% NaCl at pH 7, phosphate buffer, Au working electrode, scan rate 100 mVs^−1", "procedure": "The CVs of the compounds synthesized in example 6-7 were recorded vs. the Ag/AgCl reference electrode in a phosphate buffer pH 7 (Table 4).\nE/mV vs Ag/AgCl, 0.9% NaCl at pH 7, phosphate buffer, Au working electrode, scan rate 100 mVs^−1"}, "Solubility in water": {"assay": "Solubility in water", "assay_type": "physicochemical"}, "[2]": {"assay": "Reaction of an indicator with NADH, UV/Vis of the reduced form", "assay_type": "physicochemical", "settings": "for UV/Vis reduced form, λmax after reduction with NADH: 50 mM phosphate buffer pH = 7; for UV-Vis λmax after reduction with NADH: water", "procedure": "The following were mixed in a cuvette: 50 μL of 10 mM solution of an indicator (1-methyl-3-[(E)-2-(1,3,3-trimethyl-3H-indolium-2-yl)ethenyl]quinolinium iodide trifluoromethanesulfonate) in distilled water, 950 μL of 50 mM phosphate buffer pH 7, 2 μL of 10 mM NADH solution in distilled water. A UV/Vis spectrum (400-1000 nm) was recorded every 7.5 sec for a 1 min after addition of NADH (resolution 2 nm) (FIG. 1). No further color change could be measured after 52.5 sec."}, "[3]": {"assay": "Evaluation of the reaction rates with NADH", "settings": "for Colour change of the solution treated with NADH: NADH (disodium salt); for Turnover rates with NADH compared with ascorbate: NADH vs ascorbate", "procedure": "(§1) Two solutions of the redoxindicator 1-methyl-6-((E)-3-oxo-3-phenyl-propenyl)-quinolinium methosulfate (5.00 mg, 0.013 mmol) in 1.00 ml water were each treated with an excess of NADH (disodium salt) or sodium ascorbate, respectively. […] After a few minutes, a larger amount of an orange precipitate was obtained, probably the insoluble dihydrochinoline. […] Even after 16 h no precipitate was found.\n(§2) Two solutions of the redoxindicators 1-methyl-3-[(E)-2-(1,3,3-trimethyl-3H-indolium-2-yl)ethenyl]quinolinium iodide trifluoromethanesulfonate (0.005 mmol) in 1.00 ml of 50 mM phosphate buffer pH 7 were each treated with 2 μL of 10 mM NADH (disodium salt) or sodium ascorbate solutions in distilled water, respectively. The absorbance at 535 nm was measured in relation to time (FIG. 3)."}, "[4]": {"assay": "Evaluation of the reaction rates with ascorbate", "settings": "sodium ascorbate", "procedure": "as §1, §2"}, "[5]": {"assay": "Evaluation of extinction coefficient under pseudo-first-order reaction conditions", "assay_type": "physicochemical", "settings": "535 nm, 50 mM phosphate buffer pH 7, from slope of ΔAbs vs initial NADH", "procedure": "The following were mixed in a cuvette: 100 μL of 10 mM solution of 1-methyl-3-[(E)-2-(1,3,3-trimethyl-3H-indolium-2-yl)ethenyl]quinolinium iodide trifluoromethanesulfonate in distilled water, 900 μL of 50 mM phosphate buffer pH 7, 1-3 μL of 10 mM NADH in distilled water. Change in absorbance at 535 nm was recorded after 5 min, when no further color change could be measured (FIG. 3, 9).\nThis ε value is nine times greater than those of the reduced form of MTT (Czerlinski, G. H.; et al; Journal of Biochemical and Biophysical Methods 1988, 15, 241)."}, "[6]": {"assay": "Fluorometric determination of NADH", "settings": "20 μM indicator, 4 μM NADH, 10 mM PIPES pH 7, excitation at 535 nm", "procedure": "The following were mixed in a cuvette: 2 μL of 10 mM solution of an indicator (1-methyl-3-[(E)-2-(1,3,3-trimethyl-3H-indolium-2-yl)ethenyl]quinolinium iodide trifluoromethanesulfonate) in distilled water, 1000 μL of 10 mM PIPES buffer pH 7, 0.5-4 μL of 1 mM NADH solution in distilled water. The mixture was incubated for 30 min at room temperature. Fluorescence (550-800 nm) was recorded using excitation at 535 nm. (FIG. 10, 11)."}, "HEK-293 cells": {"test_system": "HEK-293 cells", "assay": "Cell viability testing, confocal fluorescence microscopy", "assay_type": "cell-based", "settings": "20 μM", "procedure": "Viable HEK-293 cells and 4% paraformaldehyde killed HEK-293 cells were incubated with 1-methyl-3-[(E)-2-(1,3,3-trimethyl-3H-indolium-2-yl)ethenyl]quinolinium iodide trifluoromethanesulfonate (20 μM) in 10 mM PBS pH 7 at 37 C. Confocal fluorescence microscope images were recorded at 611 nm using excitation at 561 nm. […] The resulting cells retained viability for at least 24 h."}, "[7]": {"test_system": "glucose dehydrogenase 2 (GlucDH2)", "assay": "Determination of glucose with GlucDH2/NAD and an indicator", "assay_type": "biochemical", "settings": "0.5 mM indicator, NAD/GlucDH2, glucose 385 μM, 100 mM phosphate buffer pH 7", "procedure": "The following were mixed in a cuvette: 500 μL of 1.0 mM solution of an indicator (1-methyl-6-[(E)-2-(1,3,3-trimethyl-3H-indolium-2-yl)vinyl]quinolinium iodide trifluoromethanesulfonate) in 100 mM phosphate buffer pH 7, 500 μL of glucose dehydrogenase 2 (GlucDH2) solution (in 100 mM phosphate buffer pH 7 containing 4.0 mM NAD^+) at a concentration of 491 U/ml, 40 μL of 10 mM solution of glucose in distilled water. A UV/Vis spectrum (300-1000 nm) was recorded every 1 min for a 10 min after addition of glucose (resolution 1 nm) (FIG. 4)."}},
  "note": "Like-named read-outs stand apart in the source and are kept apart here.",
  "data": [
    {"smiles": "CC[n+]1cc(/C=C/C2=[N+](C)c3ccccc3C2(C)C)c2ccccc2c1.O=S(=O)([O-])C(F)(F)F.[I-]", "values": [
      {"measurement": "Reduction potential", "setting": "[1]", "value": "−454", "unit": "mV"}
    ]},
    {"smiles": "C[N+]1=C(/C=C/c2ccc(-c3ccc(/C=C/C4=[N+](C)c5ccccc5C4(C)C)c[n+]3C)[n+](C)c2)C(C)(C)c2ccccc21.O=S(=O)([O-])C(F)(F)F.O=S(=O)([O-])C(F)(F)F.[I-].[I-]", "values": [
      {"measurement": "solubility", "setting": "Solubility in water", "value": "≥ 15", "unit": "mM"}
    ]},
    {"smiles": "C[N+]1=C(/C=C/c2cc3ccccc3[n+](C)c2)C(C)(C)c2ccccc21.O=S(=O)([O-])C(F)(F)F.[I-]", "note": "[XXIV, 1-methyl-3-[(E)-2-(1,3,3-trimethyl-3H-indolium-2-yl)ethenyl]quinolinium iodide trifluoromethanesulfonate]", "values": [
      {"measurement": "Time after addition of NADH after which no further color change could be measured", "setting": "[2]; 0.5 mM indicator, 20 μM NADH, 50 mM phosphate buffer pH 7", "value": 52.5, "unit": "s"},
      {"measurement": "UV/Vis reduced form, λmax after reduction with NADH", "setting": "[2]", "value": 535, "unit": "nm"},
      {"measurement": "solubility", "setting": "Solubility in water", "value": "≥ 10", "unit": "mM"},
      {"measurement": "Colour change of the solution treated with NADH", "setting": "[3]", "value": "changed rapidly from nearly colorless to pink"},
      {"measurement": "Turnover rates with NADH compared with ascorbate", "setting": "[3]", "value": "much higher than with ascorbate"},
      {"measurement": "Colour change of the solution treated with ascorbate", "setting": "[4]", "value": "did not change color"},
      {"measurement": "Extinction coefficient ε of the reduced form", "setting": "[5]", "value": 69.3, "unit": "mM⁻¹ cm⁻¹"},
      {"measurement": "Fluorescence emission λmax after adding NADH", "setting": "[6]", "value": 560, "unit": "nm"},
      {"measurement": "Fluorescence intensity, viable vs dead HEK-293 cells", "setting": "HEK-293 cells", "value": "much higher in viable cells than in dead cells"},
      {"measurement": "Fluorescence intensity in viable HEK-293 cells", "setting": "HEK-293 cells; 10 mM PBS pH 7, 37 C, 611 nm, excitation 561 nm", "value": "fluorescence intensity was enhanced"},
      {"measurement": "Cellular uptake in viable HEK-293 cell", "setting": "HEK-293 cells; confocal image", "value": "showed cellular uptake"},
      {"measurement": "Fluorescence intensity in paraformaldehyde killed HEK-293 cells", "setting": "HEK-293 cells; 4% paraformaldehyde killed cells, 10 mM PBS pH 7, 37 C", "value": "did not show enhancement in fluorescence intensity"},
      {"measurement": "Time for which treated cells retained viability", "setting": "HEK-293 cells; viable HEK-293 cells", "value": "at least 24 h"}
    ]},
    {"smiles": "CCOc1cccc2c1nc1c(/C=C/C3=[N+](C)c4ccccc4C3(C)C)cccc1[n+]2C.[Cl-].[Cl-]", "note": "[9-ethoxy-10-methyl-1-[(E)-2-(1,3,3-trimethyl-3H-indolium-2-yl)vinyl]phenazinium]", "values": [
      {"measurement": "solubility", "setting": "Solubility in water", "value": "≥ 7", "unit": "mM"}
    ]},
    {"smiles": "C[N+]1=C(/C=C/c2c[n+](C)cc3ccccc23)C(C)(C)c2ccccc21", "values": [
      {"measurement": "solubility", "setting": "Solubility in water", "value": "≥ 25", "unit": "mM"}
    ]},
    {"smiles": "C[N+]1=C(/C=C/c2ccc[n+](C)c2)C(C)(C)c2ccccc21.O=S(=O)([O-])C(F)(F)F.[I-]", "values": [
      {"measurement": "Reduction potential", "setting": "[1]", "value": "−564", "unit": "mV"}
    ]},
    {"smiles": "COS(=O)(=O)[O-].C[n+]1cccc2cc(/C=C/C(=O)c3ccccc3)ccc21", "note": "[MOPPQ, 1-Methyl-6-((E)-3-oxo-3-phenyl-propenyl)-quinolinium methosulfate]", "values": [
      {"measurement": "Colour change of the solution treated with NADH", "setting": "[3]", "value": "changed rapidly from nearly colorless to orange"},
      {"measurement": "Turnover rates with NADH compared with ascorbate", "setting": "[3]", "value": "much higher than with ascorbate"},
      {"measurement": "Colour change of the solution treated with ascorbate", "setting": "[4]", "value": "showed only a pale orange color"}
    ]},
    {"smiles": "C[N+]1=C(/C=C/c2cccc3c2nc2ccccc2[n+]3C)C(C)(C)c2ccccc21.O=S(=O)([O-])C(F)(F)F.[I-]", "values": [
      {"measurement": "solubility", "setting": "Solubility in water", "value": "≥ 4", "unit": "mM"}
    ]},
    {"smiles": "C[N+]1=C(/C=C/c2cc3ccccc3[n+](C)c2)C(C)(C)c2ccccc21.O=S(=O)([O-])C(F)(F)F.[I-]", "note": "[drawing 50]", "values": [
      {"measurement": "Reduction potential", "setting": "[1]", "value": "−534", "unit": "mV"}
    ]},
    {"smiles": "C[N+]1=C(/C=C/c2ccc3c(ccc[n+]3C)c2)C(C)(C)c2ccccc21.O=S(=O)([O-])C(F)(F)F.[I-]", "note": "[drawing 35, 1-methyl-6-[(E)-2-(1,3,3-trimethyl-3H-indolium-2-yl)vinyl]quinolinium iodide trifluoromethanesulfonate]", "values": [
      {"measurement": "UV/Vis reduced form, λmax after reduction with NADH", "setting": "[2]", "value": 517, "unit": "nm"},
      {"measurement": "solubility", "setting": "Solubility in water", "value": "≥ 15", "unit": "mM"},
      {"measurement": "Absorbance λmax after adding glucose", "setting": "[7]", "value": 516, "unit": "nm"}
    ]},
    {"smiles": "C[N+]1=C(/C=C/c2c[n+](C)cc3ccccc23)C(C)(C)c2ccccc21.O=S(=O)([O-])C(F)(F)F.[I-]", "values": [
      {"measurement": "Reduction potential", "setting": "[1]", "value": "−424", "unit": "mV"}
    ]},
    {"smiles": "CC[n+]1cc(/C=C/C2=[N+](C)c3ccccc3C2(C)C)cc2ccccc21.O=S(=O)([O-])C(F)(F)F.[I-]", "values": [
      {"measurement": "Reduction potential", "setting": "[1]", "value": "−524", "unit": "mV"}
    ]},
    {"smiles": "CC[n+]1cc(/C=C2\\CCC[N+]3=C2C(C)(C)c2ccccc23)cc2ccccc21", "values": [
      {"measurement": "solubility", "setting": "Solubility in water; Cl^− form", "value": "≥ 0.3", "unit": "mM"}
    ]},
    {"smiles": "C[N+]1=C(/C=C/c2ccc[n+](C)c2)C(C)(C)c2ccccc21", "values": [
      {"measurement": "solubility", "setting": "Solubility in water", "value": "≥ 114", "unit": "mM"}
    ]},
    {"smiles": "C[N+]1=C(/C=C/c2cccc3c2ncc[n+]3C)C(C)(C)c2ccccc21.O=S(=O)([O-])C(F)(F)F.[I-]", "values": [
      {"measurement": "UV-Vis λmax after reduction with NADH", "setting": "[2]", "value": 535, "unit": "nm"},
      {"measurement": "solubility", "setting": "Solubility in water", "value": "≥ 9", "unit": "mM"}
    ]},
    {"smiles": "C[N+]1=C(/C=C/c2ccc3c(c2)nc2ccccc2[n+]3C)C(C)(C)c2ccccc21.O=S(=O)([O-])C(F)(F)F.[I-]", "values": [
      {"measurement": "UV-Vis λmax after reduction with NADH", "setting": "[2]", "value": "LC-MS m/z 379.3 (M^+) HRMS m/z 378.1970 ([M − H]^+) UV-Vis (water) after reduction with NADH: λmax 740 nm;"}
    ]},
    {"smiles": "CC[n+]1cc(/C=C/C2=[N+](C)c3ccccc3C2(C)C)cc2ccccc21", "values": [
      {"measurement": "solubility", "setting": "Solubility in water", "value": "≥ 4", "unit": "mM"}
    ]},
    {"smiles": "C[N+]1=C(/C=C/c2ccc3c(ccc[n+]3C)c2)C(C)(C)c2ccccc21.O=S(=O)([O-])C(F)(F)F.[I-]", "note": "[drawing 52]", "values": [
      {"measurement": "Reduction potential", "setting": "[1]", "value": "−634", "unit": "mV"}
    ]}
  ]
}
